{"source": "patent US20250313572A1", "about": "“MACROCYCLIC MCL-1 INHIBITORS AND METHODS OF USE” (AbbVie Inc., priority 2017, published 2025)", "key": {"GST-MCL-1": {"biological_target": "GST-MCL-1 (Homo sapiens, UniProt Q07820)", "sequence (Q07820 whole entry)": "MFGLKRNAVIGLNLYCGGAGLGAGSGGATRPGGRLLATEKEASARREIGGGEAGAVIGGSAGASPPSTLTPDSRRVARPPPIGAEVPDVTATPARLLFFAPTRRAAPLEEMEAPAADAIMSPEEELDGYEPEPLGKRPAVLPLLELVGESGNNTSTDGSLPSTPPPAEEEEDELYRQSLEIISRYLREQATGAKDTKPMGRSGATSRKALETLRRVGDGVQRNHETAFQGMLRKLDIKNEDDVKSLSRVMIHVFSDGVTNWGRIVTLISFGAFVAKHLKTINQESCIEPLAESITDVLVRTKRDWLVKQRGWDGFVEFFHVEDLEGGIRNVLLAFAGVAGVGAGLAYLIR", "assay": "TR-FRET MCL-1 binding assay (competition with probe F-Bak)", "how_it_was_run": "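Displacement of F-Bak from GST-MCL-1 is detected by time-resolved FRET with a Tb-labelled anti-GST antibody, with excitation 340/35 nm and emission 520/525 and 495/510 nm, after 2 hours at room temperature. Compounds were titrated in 11 three-fold steps starting at 25 μM final, in buffer alone or in 10% HS.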"}, "[1]": {"test_system": "AMO-1 human multiple myeloma tumor cell line", "assay": "AMO-1 cell viability assay (CellTiter-Glo, 24 hours)", "format": "cell-based", "conditions": "Homo sapiens, AMO1, 24 h, read-out: AMO-1 Viability IC50 (μM, 10% FBS), 10% FBS, 24 hours of compound treatment"}, "[2]": {"test_system": "NCI-H929 human multiple myeloma tumor cell line", "assay": "NCI-H929 cell viability assay (CellTiter-Glo, 24 hours)", "format": "cell-based", "conditions": "Homo sapiens, NCI-H929, 24 h, read-out: H929 Viability IC50 (μM, 10% FBS), 10% FBS, 24 hours of compound treatment"}, "[3]": {"conditions": "MCL-1 Binding Ki (nM, 10% HS), in the presence of 10% HS (human serum)"}, "[4]": {"conditions": "without HS, read-out: MCL-1 Binding Ki"}}, "note": "Read-outs that look alike come from different tables or passages of the source.", "data": [{"smiles": "Cc1c(Cl)c2c(Cl)c(C)c1-c1c(-c3ccc(F)cc3)sc3ncnc(c13)O[C@@H](C(=O)O)Cc1cc(ccc1OCc1ccnc(-c3ccc(OCCN4CC5CCC(C4)O5)cc3)n1)OC[C@@H](CN1CCN(C)CC1)O2", "note": "[Example 170, (7R,16R)-19,23-dichloro-1-(4-fluorophenyl)-20,22-dimethyl-16-[(4-methylpiperazin-1-yl)methyl]-10-[(2-{4-[2-(8-oxa-3-azabicyclo[3.2.1]octan-3-yl)ethoxy]phenyl}pyrimidin-4-yl)methoxy]-7,8,15,16-tetrahydro-18,21-etheno-13,9-(metheno)-6,14,17-trioxa-2-thia-3,5-diazacyclononadeca[1,2,3-cd]indene-7-carboxylic Acid]", "values": [{"measurement": "Ki", "setting": "GST-MCL-1; [3]", "value": 1.85, "unit": "nM"}, {"measurement": "Ki", "setting": "GST-MCL-1; [4]", "value": 0.042, "unit": "nM"}, {"measurement": "IC50", "setting": "[1]", "value": 0.000646, "unit": "µM"}, {"measurement": "IC50", "setting": "[2]", "value": 0.00278, "unit": "µM"}]}, {"smiles": "Cc1c(Cl)c2c(Cl)c(C)c1-c1c(-c3ccc(F)cc3)sc3ncnc(c13)O[C@@H](C(=O)O)Cc1cc(ccc1OCc1ccnc(N3CC4CC(C4)C3)n1)OC[C@@H](CN1CCN(C)CC1)O2", "note": "[Example 171, (7R,16R)-10-{[2-(3-azabicyclo[3.1.1]heptan-3-yl)pyrimidin-4-yl]methoxy}-19,23-dichloro-1-(4-fluorophenyl)-20,22-dimethyl-16-[(4-methylpiperazin-1-yl)methyl]-7,8,15,16-tetrahydro-18,21-etheno-13,9-(metheno)-6,14,17-trioxa-2-thia-3,5-diazacyclononadeca[1,2,3-cd]indene-7-carboxylic Acid]", "values": [{"measurement": "Ki", "setting": "GST-MCL-1; [3]", "value": 3.98, "unit": "nM"}, {"measurement": "Ki", "setting": "GST-MCL-1; [4]", "value": 0.1, "unit": "nM"}, {"measurement": "IC50", "setting": "[1]", "value": 0.00112, "unit": "µM"}, {"measurement": "IC50", "setting": "[2]", "value": 0.00757, "unit": "µM"}]}, {"smiles": "Cc1c(Cl)c2c(Cl)c(C)c1-c1c(-c3ccc(F)cc3)sc3ncnc(c13)O[C@@H](C(=O)O)Cc1cc(ccc1OCc1ccnc(N3C[C@H]4C[C@@H](C3)C4(F)F)n1)OC[C@@H](CN1CCN(C)CC1)O2", "note": "[Example 172, (7R,16R)-19,23-dichloro-10-({2-[(1R,5S)-6,6-difluoro-3-azabicyclo[3.1.1]heptan-3-yl]pyrimidin-4-yl}methoxy)-1-(4-fluorophenyl)-20,22-dimethyl-16-[(4-methylpiperazin-1-yl)methyl]-7,8,15,16-tetrahydro-18,21-etheno-13,9-(metheno)-6,14,17-trioxa-2-thia-3,5-diazacyclononadeca[1,2,3-cd]indene-7-carboxylic Acid]", "values": [{"measurement": "Ki", "setting": "GST-MCL-1; [3]", "value": 2.74, "unit": "nM"}, {"measurement": "Ki", "setting": "GST-MCL-1; [4]", "value": 0.141, "unit": "nM"}, {"measurement": "IC50", "setting": "[1]", "value": 0.000966, "unit": "µM"}, {"measurement": "IC50", "setting": "[2]", "value": 0.00524, "unit": "µM"}]}, {"smiles": "Cc1c(Cl)c2c(Cl)c(C)c1-c1c(-c3ccc(F)cc3)sc3ncnc(c13)O[C@@H](C(=O)O)Cc1cc(ccc1OCc1ccnc(-c3ccc(OC[C@H]4CN(C)CCCO4)cc3)n1)OC[C@@H](CN1CCN(C)CC1)O2", "note": "[Example 175, (7R,16R)-19,23-dichloro-1-(4-fluorophenyl)-20,22-dimethyl-10-{[2-(4-{[(2R)-4-methyl-1,4-oxazepan-2-yl]methoxy}phenyl)pyrimidin-4-yl]methoxy}-16-[(4-methylpiperazin-1-yl)methyl]-7,8,15,16-tetrahydro-18,21-etheno-13,9-(metheno)-6,14,17-trioxa-2-thia-3,5-diazacyclononadeca[1,2,3-cd]indene-7-carboxylic Acid]", "values": [{"measurement": "Ki", "setting": "GST-MCL-1; [3]", "value": 0.122, "unit": "nM"}, {"measurement": "Ki", "setting": "GST-MCL-1; [4]", "value": "< 0.01", "unit": "nM"}, {"measurement": "IC50", "setting": "[1]", "value": 0.00164, "unit": "µM"}, {"measurement": "IC50", "setting": "[2]", "value": 0.00573, "unit": "µM"}]}, {"smiles": "COCCOCCOCCOc1cncc(COc2ccc3cc2C[C@H](C(=O)O)Oc2ncnc4sc(-c5ccc(F)cc5)c(c24)-c2c(C)c(Cl)c(c(Cl)c2C)O[C@H](CN2CCN(C)CC2)CO3)n1", "note": "[Example 176, (7R,16R)-19,23-dichloro-1-(4-fluorophenyl)-10-[(6-{2-[2-(2-methoxyethoxy)ethoxy]ethoxy}pyrazin-2-yl)methoxy]-20,22-dimethyl-16-[(4-methylpiperazin-1-yl)methyl]-7,8,15,16-tetrahydro-18,21-etheno-13,9-(metheno)-6,14,17-trioxa-2-thia-3,5-diazacyclononadeca[1,2,3-cd]indene-7-carboxylic Acid]", "values": [{"measurement": "Ki", "setting": "GST-MCL-1; [3]", "value": 0.868, "unit": "nM"}, {"measurement": "Ki", "setting": "GST-MCL-1; [4]", "value": 0.151, "unit": "nM"}, {"measurement": "IC50", "setting": "[1]", "value": 0.00386, "unit": "µM"}, {"measurement": "IC50", "setting": "[2]", "value": 0.0073, "unit": "µM"}]}]}
